Assay results from patent US9796700B2 (Celgene CAR LLC, priority 2013, dated 2017).

What was measured:
Erk1 = Erk1 (Homo sapiens (Human), UniProt P27361); experiment: Protein Mass Modification Assay (intact protein MALDI); assay type: binding
How it was run: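 Human Erk1 was incubated 60 min at room temperature with a 10-fold molar excess of compound, then analysed as intact protein by MALDI with sinapinic acid matrix. The centroid mass shift versus untreated protein was divided by compound molecular weight to give percent modified protein.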

MEK1 activated ERK1 = MEK1 activated ERK1 (Homo sapiens (Human), UniProt P27361); experiment: Omnia continuous-read kinase assay for potency against MEK1 activated ERK1; assay type: biochemical; settings: MEK1 activated ERK1, WT, ATP at KM
MEK1 activated ERK1, sequence (P27361 whole entry): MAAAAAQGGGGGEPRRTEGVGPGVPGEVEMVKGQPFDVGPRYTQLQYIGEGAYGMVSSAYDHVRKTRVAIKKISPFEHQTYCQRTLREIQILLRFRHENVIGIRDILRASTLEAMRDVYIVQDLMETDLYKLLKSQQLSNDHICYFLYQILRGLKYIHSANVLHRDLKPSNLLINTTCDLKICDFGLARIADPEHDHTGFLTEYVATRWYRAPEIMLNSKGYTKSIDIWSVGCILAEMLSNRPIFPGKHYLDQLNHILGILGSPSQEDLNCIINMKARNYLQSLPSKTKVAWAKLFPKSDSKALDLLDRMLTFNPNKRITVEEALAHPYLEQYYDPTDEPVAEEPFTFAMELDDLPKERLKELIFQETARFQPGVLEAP
How it was run: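 Apparent IC50 came from initial reaction slopes (RFU vs time) plotted against log inhibitor with a variable-slope fit. Reactions were started with ERK1 (4 nM final) added to 50 μM ATP, roughly at its appKM, and 10 μM Sox-conjugated ST17 peptide in 20 mM Tris pH 7.5, 5 mM MgCl2. Fluorescence was monitored every 71 seconds.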

Erk1, sequence (P27361 whole entry, looked up): as the sequence (P27361 whole entry) above

Compound	ERK1 Mass Mod (%) (Erk1)	IC50 (MEK1 activated ERK1) [nM]
C=CC(=O)Nc1ccccc1Nc1nc(Nc2ccc(N3CCC[C@H]3CO)cc2C#N)ncc1Cl [Compound I-160, (S)—N-(2-((5-chloro-2-((2-cyano-4-(2-(hydroxymethyl)pyrrolidin-1-yl)phenyl)amino)pyrimidin-4-yl)amino)phenyl)acrylamide]	G (proived a mass modification ≦30%)	> 1000
C=CC(=O)Nc1cc(OC)ccc1Nc1nc(Nc2ccc(N3CCNCC3)cc2C#N)ncc1Cl [Compound I-161, N-(2-((5-chloro-2-((2-cyano-4-(piperazin-1-yl)phenyl)amino)pyrimidin-4-yl)amino)-5-methoxyphenyl)acrylamide]	G (proived a mass modification ≦30%)	> 1000
C=CC(=O)Nc1cc(OC)ccc1Nc1nc(Nc2ccc(N3CCNCC3)cc2OC)ncc1Cl [Compound I-162, N-(2-((5-chloro-2-((2-methoxy-4-(piperazin-1-yl)phenyl)amino)pyrimidin-4-yl)amino)-5-methoxyphenyl)acrylamide]	E (provided a mass modification of ≧70%)	> 1000
C=CC(=O)Nc1cc(OC)ccc1Nc1nc(Nc2ccc(N3CC[C@H](O)C3)cc2C#N)ncc1Cl [Compound I-165, (S)—N-(2-((5-chloro-2-((2-cyano-4-(3-hydroxypyrrolidin-1-yl)phenyl)amino)pyrimidin-4-yl)amino)-5-methoxyphenyl)acrylamide]	F (provided a mass modification of 31-69%)	> 1000
C=CC(=O)Nc1ccccc1Nc1nc(Nc2ccc(N(CCNC(=O)OC(C)(C)C)C(C)=O)cc2C(F)(F)F)ncc1Cl [Compound I-170, tert-butyl (2-(N-(4-((4-((2-acrylamidophenyl)amino)-5-chloropyrimidin-2-yl)amino)-3-(trifluoromethyl)phenyl)acetamido)ethyl)carbamate]	E (provided a mass modification of ≧70%)	> 1000
C=CC(=O)Nc1ccccc1Nc1nc(Nc2ccc(N3CCC[C@@H]3CO)cc2C#N)ncc1Cl [Compound I-171, (R)—N-(2-((5-chloro-2-((2-cyano-4-(2-(hydroxymethyl)pyrrolidin-1-yl)phenyl)amino)pyrimidin-4-yl)amino)phenyl)acrylamide]	E (provided a mass modification of ≧70%)	> 1000
C=CC(=O)Nc1ccccc1Nc1nc(Nc2ccc(N3CCC[C@H]3CO)cc2C#N)ncc1Cl [Compound I-172, (S)—N-(2-((5-chloro-2-((2-cyano-4-(2-(hydroxymethyl)pyrrolidin-1-yl)phenyl)amino)pyrimidin-4-yl)amino)phenyl)acrylamide]	F (provided a mass modification of 31-69%)	> 1000
C=CC(=O)Nc1ccccc1Nc1nc(Nc2ccc(OCCOC)cc2OC)ncc1Cl [Compound I-182, N-(2-((5-chloro-2-((2-methoxy-4-(2-methoxyethoxy)phenyl)amino)pyrimidin-4-yl)amino)phenyl)acrylamide]	E (provided a mass modification of ≧70%)	> 1000
C=CC(=O)N[C@@H]1CCCC[C@H]1Nc1nc(Nc2cc(C(=O)NOC)ccc2C)ncc1Cl [Compound I-190, 3-((4-(((1R,2R)-2-acrylamidocyclohexyl)amino)-5-chloropyrimidin-2-yl)amino)-N-methoxy-4-methylbenzamide]	F (provided a mass modification of 31-69%)	> 1000
C=CC(=O)N[C@@H]1CCCC[C@@H]1Nc1nc(Nc2cc(C(N)=O)ccc2C)ncc1Cl [Compound I-199, 3-((4-(((1S,2R)-2-acrylamidocyclohexyl)amino)-5-chloropyrimidin-2-yl)amino)-4-methylbenzamide]	G (proived a mass modification ≦30%)	> 1000
C=CC(=O)N[C@H]1CCCC[C@H]1Nc1nc(Nc2cc(C(N)=O)ccc2C)ncc1Cl [Compound I-200, 3-((4-(((1R,2S)-2-acrylamidocyclohexyl)amino)-5-chloropyrimidin-2-yl)amino)-4-methylbenzamide]	G (proived a mass modification ≦30%)	> 1000
C=CC(=O)N[C@H]1CCCC[C@@H]1Nc1nc(Nc2cc(C(N)=O)ccc2C)ncc1Cl [Compound I-201, 3-((4-(((1S,2S)-2-acrylamidocyclohexyl)amino)-5-chloropyrimidin-2-yl)amino)-4-methylbenzamide]	G (proived a mass modification ≦30%)	> 1000
C=CC(=O)N(C)c1ccccc1Nc1nc(Nc2cc(C(=O)NOCCO)ccc2C#N)ncc1Cl [Compound I-204, 3-((5-chloro-4-((2-(N-methylacrylamido)phenyl)amino)pyrimidin-2-yl)amino)-4-cyano-N-(2-hydroxyethoxy)benzamide]	F (provided a mass modification of 31-69%)	> 1000
C=CC(=O)Nc1cc(F)ccc1Nc1nc(Nc2cc(C(N)=O)ccc2OC)ncc1Cl [Compound I-208, 3-((4-((2-acrylamido-4-fluorophenyl)amino)-5-chloropyrimidin-2-yl)amino)-4-methoxybenzamide]	E (provided a mass modification of ≧70%)	< 100
C=CC(=O)N[C@H]1CCC[C@@H]1Nc1nc(Nc2cc(C(N)=O)ccc2C)ncc1Cl [Compound I-215, 3-((4-(((1 S,2S)-2-acrylamidocyclopentyl)amino)-5-chloropyrimidin-2-yl)amino)-4-methylbenzamide]	G (proived a mass modification ≦30%)	> 1000
C=CC(=O)Nc1cc(F)ccc1Nc1nc(Nc2ccc(F)cc2C#N)ncc1Cl [Compound I-221, N-(2-((5-chloro-2-((2-cyano-4-fluorophenyl)amino)pyrimidin-4-yl)amino)-5-fluorophenyl)acrylamide]	E (provided a mass modification of ≧70%)	< 100
CC(C)=CC(=O)c1ccccc1Oc1nc(Nc2ccc(F)cc2C)ncc1Cl [Compound I-222, 1-(2-((5-chloro-2-((4-fluoro-2-methylphenyl)amino)pyrimidin-4-yl)oxy)phenyl)-3-methylbut-2-en-1-one]	G (proived a mass modification ≦30%)	> 1000
CC(C)=CC(=O)c1ccccc1Oc1nc(Nc2cc(C(N)=O)ccc2C)ncc1Cl [Compound I-223, 3-((5-chloro-4-(2-(3-methylbut-2-enoyl)phenoxy)pyrimidin-2-yl)amino)-4-methylbenzamide]	E (provided a mass modification of ≧70%)	> 1000

Next, values leading:

ERK1 Mass Mod (%) (Erk1)	IC50 (MEK1 activated ERK1) [nM]	Compound
E (provided a mass modification of ≧70%)	> 1000	C=CC(=O)Nc1ccccc1Nc1nc(Nc2ccc(NC(=O)OC)cc2OC)ncc1Cl [Compound I-184, methyl (4-((4-((2-acrylamidophenyl)amino)-5-chloropyrimidin-2-yl)amino)-3-methoxyphenyl)carbamate]
G (proived a mass modification ≦30%)	> 1000	C=CC(=O)NCc1ccccc1Nc1nc(Nc2cc(C(N)=O)ccc2C)ncc1Cl [Compound I-189, 3-((4-((2-(acrylamidomethyl)phenyl)amino)-5-chloropyrimidin-2-yl)amino)-4-methylbenzamide]
E (provided a mass modification of ≧70%)	< 100	C=CC(=O)Nc1ccccc1Nc1nc(Nc2cc(C(=O)NOC)ccc2C)ncc1Cl [Compound I-191, 3-((4-((2-acrylamidophenyl)amino)-5-chloropyrimidin-2-yl)amino)-N-methoxy-4-methylbenzamide]
E (provided a mass modification of ≧70%)	< 100	C=CC(=O)Nc1ccccc1Nc1nc(Nc2cc(C(N)=O)ccc2C#N)ncc1Cl [Compound I-192, 3-((4-((2-acrylamidophenyl)amino)-5-chloropyrimidin-2-yl)amino)-4-cyanobenzamide]
E (provided a mass modification of ≧70%)	< 100	C=CC(=O)Nc1ccccc1Nc1nc(Nc2cc(C(N)=O)ccc2CC)ncc1Cl [Compound I-193, 3-((4-((2-acrylamidophenyl)amino)-5-chloropyrimidin-2-yl)amino)-4-ethylbenzamide]
E (provided a mass modification of ≧70%)	> 1000	C=CC(=O)N(C)c1ccccc1Nc1nc(Nc2cc(C(=O)NOC)ccc2C#N)ncc1Cl [Compound I-197, 3-((5-chloro-4-((2-(N-methylacrylamido)phenyl)amino)pyrimidin-2-yl)amino)-4-cyano-N-methoxybenzamide]
G (proived a mass modification ≦30%)	> 1000	CC(C)=CC(=O)c1ccccc1Nc1nc(Nc2cc(C(N)=O)ccc2C)ncc1Cl [Compound I-216, 3-((5-chloro-4-((2-(3-methylbut-2-enoyl)phenyl)amino)pyrimidin-2-yl)amino)-4-methylbenzamide]
G (proived a mass modification ≦30%)	> 1000	C=C(C)C(=O)Nc1ccccc1Nc1nc(Nc2cc(C(N)=O)ccc2C)ncc1Cl [Compound I-217, 3-((5-chloro-4-((2-methacrylamidophenyl)amino)pyrimidin-2-yl)amino)-4-methylbenzamide]
G (proived a mass modification ≦30%)	> 1000	Cc1ccc(C(N)=O)cc1Nc1ncc(Cl)c(Nc2ccccc2NC(=O)/C=C/CN(C)C)n1 [Compound I-218, (E)-3-((5-chloro-4-((2-(4-(dimethylamino)but-2-enamido)phenyl)amino)pyrimidin-2-yl)amino)-4-methylbenzamide]
G (proived a mass modification ≦30%)	> 1000	C/C=C/C(=O)Nc1ccccc1Nc1nc(Nc2cc(C(N)=O)ccc2C)ncc1Cl [Compound I-219, (E)-3-((4-((2-(but-2-enamido)phenyl)amino)-5-chloropyrimidin-2-yl)amino)-4-methylbenzamide]
